Source: patent US8198325B2, “Unsaturated alkyl esters of 5-aminolevulinic acid, their preparation and their use” (Industry Foundation of Chonnam National University, priority 2006, dated 2012)

Legend:
[1] = system: Malignant melanoma (TMX 13); assay: Cytotoxicity test (cell survival), MTT assay, TXM 13; type: cell-based; details: 24 hours
Method: (§1) 3. Cytotoxicity Test (Cell Survival Test)
(§2) Cytotoxicity was conducted through an MTT assay (Chemicon, Serologicals Corporation, USA) as follows.
(§3) Cells were seeded at a density of 3×10^4 cells/well in 96-well plates (Nunc Do, Denmark).
(§4) When the cells were at a confluence of about 60˜70%, 24 hours after seeding, the media was exchanged for 100 μl of fresh, serum-free media containing various respective concentrations of ALA or ALA-ester, after which the cells were incubated for an additional 24 hours.
(§5) An MTT solution (0.5 mg/mL) was added in an amount of […] to each well, followed by incubation for 4 hours to form formazan crystals. A color-developing solution (isopropanol with 0.04 N HCl) was added in an amount of […] per well to solubilize the formazan crystals.
(§6) The plates were measured for absorbance at 570 nm using an ELISA reader (EMAX, Molecular Device, USA).
(4) Malignant Melanoma (TMX 13)

[2] = system: skin of ICR mice (epidermis, sebaceous gland); assay: Cell death in skin tissue after ointment and LED irradiation, H&E (FIGS. 9, 10); type: in vivo
Method: Ointments comprising ALA or the ALA esters of the present invention at various concentrations (5˜15%) were applied in a predetermined amount ([…]) to the back of shaved ICR mice.
1 and 4 hours after the application, the back was irradiated with LED visible light (dose 25 J/cm^2).
24, 48 and 72 hours after the irradiation, skin samples were taken from the back of the mice, stained with hematoxylin-eosin (H&E) and observed for cell death.

[3] = system: A431 cells; assay: Fluorescence spectroscopy of PpIX synthesis in A431 cells (FIG. 1); type: cell-based; details: 4 hours incubation, excitation 405 nm, emission 605 nm
Method: 4. Fluorescence Spectroscopy
The synthesis of PpIX, induced by ALA and unsaturated alkyl esters of ALA in cells and skin tissues, was quantified using fluorescence spectroscopy.
The intensity of PpIX was measured on a fluorescence spectrophotometer (Uvikon, model 943) with excitation at 408 nm.
Each cell line was plated at a density of 2×10^5 cells in a 10 cm^2-dish (Falcon), and when the cells reached a confluent state of 70˜80%, serum-free media containing various concentrations (0.001˜1 mM) of ALA or ALA esters was added to the cells, followed by incubation for 4 hours.
After being washed once with PBS, the cells were detached with a 50% methanol solution containing 1M […] (HClO4) and scraped off using a Costar cell scraper.
The cells thus harvested were incubated for 5 min and centrifuged.
The fluorescence of the supernatant thus obtained was determined using a spectrofluorometer with excitation at 405 nm and emission at 605 nm.
The results are graphed in FIGS. 1 and 2.

[4] = system: Human dermal fibroblast (hF); assay: Cytotoxicity test (cell survival), MTT assay, hF; type: cell-based; details: 24 hours
Method: as §1, §2, §3, §4, §5, §6
(2) Human Dermal Fibroblast (hF)

[5] = system: Human epidermal keratinocyte (HEK); assay: Cytotoxicity test (cell survival), MTT assay, HEK; type: cell-based; details: 24 hours; for MTT absorbance (OD): 570 nm; for Cell survival Avg (%) ± SD (%): Table 3
Method: as §1, §2, §3, §4, §5, §6
(1) Human Epidermal Keratinocyte (HEK)
Cell survival of the human epidermal keratinocytes treated with ALA esters of the present invention and with ALA was compared. The results are summarized in Tables 1 and 2, which are represented in different manners depending on the measurements.

[6] = system: Squamous cell carcinoma (A431); assay: Cytotoxicity test (cell survival), MTT assay, A431; type: cell-based; details: 24 hours
Method: as §1, §2, §3, §4, §5, §6
(3) Squamous Cell Carcinoma (A431)

Structure (SMILES): COC(=O)CCC(=O)CN [ALA-1, 5-Aminolevulinic acid methyl ester, reference compound]
- Cell survival Avg ± SD (%) ([1]; TXM 13, 0.01 mM): 104.69 ± 6.64%
- Cell survival Avg ± SD (%) ([1]; TXM 13, 0.05 mM): 100.34 ± 4.39%
- Cell survival Avg ± SD (%) ([1]; TXM 13, 0.1 mM): 87.37 ± 8.13%
- Cell survival Avg ± SD (%) ([1]; TXM 13, 0.5 mM): 64.59 ± 3.95%
- Cell survival Avg ± SD (%) ([1]; TXM 13, 1 mM): 69.86 ± 8.83%
- Cell survival Avg ± SD (%) ([1]; TXM 13, 2 mM): 69.94 ± 13.42%
- Sebaceous gland morphology after irradiation ([2]; 24 hours after visible light 25 J/cm^2, FIG. 10): destroyed partially or wholly
- Epidermis histology (H&E) after irradiation ([2]; 48 hours after visible light 25 J/cm^2, FIGS. 9B and 9C): both necrosis and rejuvenation
- PpIX synthesis compared with ALA [3]: greater PpIX synthesis in A431 cells than did ALA
- Cell survival Avg (%) ± SD (%) ([4]; 0.01 mM): 110.33 ± 15.01%
- Cell survival Avg (%) ± SD (%) ([4]; 0.05 mM): 116.86 ± 17.63%
- Cell survival Avg (%) ± SD (%) ([4]; 0.1 mM): 110.44 ± 17.98%
- Cell survival Avg (%) ± SD (%) ([4]; 0.5 mM): 113 ± 22.58%
- Cell survival Avg (%) ± SD (%) ([4]; 1 mM): 120.48 ± 10.91%
- Cell survival Avg (%) ± SD (%) ([4]; 2 mM): 87.65 ± 14.77%
- MTT absorbance (OD) ([5]; 0.01 mM): 2.952 OD
- Cell survival Avg (%) ± SD (%) ([5]; 0.01 mM): 116.69 ± 1%
- MTT absorbance (OD) ([5]; 0.05 mM): 3.482 OD
- Cell survival Avg (%) ± SD (%) ([5]; 0.05 mM): 94.01 ± 0.71%
- MTT absorbance (OD) ([5]; 0.1 mM): 3.313 OD
- Cell survival Avg (%) ± SD (%) ([5]; 0.1 mM): 125.58 ± 1.05%
- MTT absorbance (OD) ([5]; 0.5 mM): 3.421 OD
- Cell survival Avg (%) ± SD (%) ([5]; 0.5 mM): 88.14 ± 0.95%
- MTT absorbance (OD) ([5]; 1 mM): 3.435 OD
- Cell survival Avg (%) ± SD (%) ([5]; 1 mM): 72.02 ± 3.52%
- MTT absorbance (OD) ([5]; 2 mM): 3.093 OD
- Cell survival Avg (%) ± SD (%) ([5]; 2 mM): 83.69 ± 1.54%
- MTT absorbance (OD) ([5]; 5 mM): 2.398 OD
- activity at 10 µM ([5]; Homo sapiens, HEK001, 0.01 mM, Table 2, read-out: Cell survival (% of control C, in brackets)): 88.8%
- activity at 2000 µM ([5]; Homo sapiens, HEK2, 2 mM, Table 2, read-out: Cell survival (% of control C, in brackets)): 93%
- activity at 50 µM ([5]; Homo sapiens, Keratinocyte, 0.05 mM, Table 2, read-out: Cell survival (% of control C, in brackets)): 104%
- activity at 100 µM ([5]; Homo sapiens, Keratinocyte, 0.1 mM, Table 2, read-out: Cell survival (% of control C, in brackets)): 99.6%
- activity at 500 µM ([5]; Homo sapiens, Keratinocyte, 0.5 mM, Table 2, read-out: Cell survival (% of control C, in brackets)): 103%
- activity at 1000 µM ([5]; Homo sapiens, Keratinocyte, 1 mM, Table 2, read-out: Cell survival (% of control C, in brackets)): 103%
- activity at 5000 µM ([5]; Homo sapiens, Keratinocyte, 5 mM, Table 2, read-out: Cell survival (% of control C, in brackets)): 69%
- Cell survival Avg (%) ± SD (%) ([6]; A431, 0.01 mM): 101.03 ± 0.71%
- Cell survival Avg (%) ± SD (%) ([6]; A431, 0.05 mM): 103.06 ± 1.05%
- Cell survival Avg (%) ± SD (%) ([6]; A431, 0.5 mM): 101.75 ± 3.52%
- Cell survival Avg (%) ± SD (%) ([6]; A431, 1 mM): 101.45 ± 1.54%
- Cell survival Avg (%) ± SD (%) ([6]; A431, 2 mM): 98.4 ± 1.2%
